Where “and” joins values, the source holds several entries; their conditions need not be identical. Equal entries are not always repeated.

Data set [1] relates to Porcine liver esterase (PLE). The data set is described as follows: Esterase-catalyzed hydrolysis of D609 prodrugs. Type of data set: in vitro ADME. As to the method:
FIG. 18A, FIG. 18B, FIG. 18C: Esterase-catalyzed hydrolysis of D609 prodrugs. Prodrugs (300 μM in 15% DMSO/PBS, pH 7.4), 1 (FIG. 18A), 2 (FIG. 18B) and 3 (FIG. 18C), were incubated at 37° C. in the presence of 0.1 unit/ml PLE. […] The data are presented as the mean±SEM of three independent assays.
To determine the hydrolytic property of D609 prodrugs 1, 2, and 3 (300 μM in 15% DMSO/PBS, pH7.4), these prodrugs were incubated with 0.1 unit/ml PLE at 37° C. After various times during incubation, the rate of hydrolysis of these D609 prodrugs was monitored by HPLC analysis. […] The concentration of D609 (μM) was calculated based on a linear D609-DTNB standard curve. The pseudo-first-order plots for the hydrolysis of these prodrugs were constructed from the logarithm of remaining ester versus time (FIG. 18). The end points of the reaction (150 min) were defined as when the hydrolysis of these prodrugs was over 99% complete and the release of D609 reached plateau. The pseudo-first-order rate constant (Kobs) and T1/2 (=0.693/Kobs) were calculated based on the slope of the linear portion of the curve for each of these prodrugs and are presented in Table 1 (Gilmer et al., 2002).

The subject of data set [2] is A20 cells. The data set is described as follows: MTT cell viability and growth, A20 cells.
Protocol: The cell viability was analyzed by MTT assay after A20 cells were cultured with vehicle or different concentrations of D609 for 48 hrs. […] A20 cells were untreated (Control), irradiated (IR 4 Gy), incubated with D609 alone, or treated with both D609 and IR. The cell viability and/or proliferation were measured by MTT assay at different times after the cells were placed into well of 96-well plate (2×10^4/0.2 ml/well). The results are expressed as means±SEM (n=3) (FIG. 13B).
Data set [3] deals with Mouse splenic lymphocytes. The data set is described as follows: Mitogen-stimulated lymphocyte proliferation, 3H-thymidine incorporation. Type of data set: cell-based. As to conditions: 188 μM=50 μg/ml. As to the method: Studies were conducted to determine whether D609 enhances mouse splenic lymphocyte mitogenic responses and IFNγ production. Mouse splenic lymphocytes at 2.5×10^6/ml were stimulated with LPS or ConA in the presence or absence of D609. The cell proliferation was measure by 3H-thymidine incorporation after the cells were cultured with LPS (FIG. 8A) or with ConA (FIG. 8B). […] In addition, the supernatants of ConA-stimulated lymphocyte cultures were harvested at various times and measured for IFNγ production by ELISA (FIG. 8C).

The mark [4] stands for this setting: 300 μM, 0.1 unit/ml PLE, 37° C., pH 7.4.

Regarding `CCCC(=O)OCSC(=S)OC1CC2CC1C1CCCC21` (stereo not drawn) [Prodrug 2, S-methyleneoxybutyryl D609], in data set [1] (setting [4]), the T1/2 was 10.61 min and the kobs was found to be 0.06532 min⁻¹. For the same molecule, the “% D609 (molar recovery of D609)” value in data set [1] (complete hydrolysis by esterase) turned out to be 93%.
For `S=C([S-])OC1CC2CC1C1CCCC21.[K+]` (stereo not drawn) [Prodrug D609, Tricyclodecan-9-yl-xanthogenate], the LD50 entry in data set [2] (48 hrs) was “about 106 μM and ~28.2 μg/ml”. For the same molecule, the “response of A20 cells to IR” value in data set [2] (IR 4 Gy) is on record as “enhanced their response to IR”. Also, the “mitogenic responses to LPS or ConA” value in data set [3] was “enhanced their mitogenic responses”.

These data come from patent US20070244076A1, “Site and Rate Selective Prodrug Formulations of D609 with Antioxidant and Anticancer Activity” (priority 2003, published 2007).
